Laboratory results: ChEMBL document CHEMBL5113525, “Discovery of the Novel 1H-Pyrrolo[2,3-b]pyridine Derivative as a Potent Type II CDK8 Inhibitor against Colorectal Cancer” (J Med Chem, 2022)
Calls of active or inactive are those of the source. The calls are words filed in the database; no cut-off is given here.

Key:
[1] = Half life in Sprague-Dawley rat at 5 mg/kg, iv measured upto 12 hrs by LC-MS/MS analysis; assay type: ADME, organism-based; settings: in vivo
[2] = molecular target: Cyclin-dependent kinase 8 (Mus musculus) (UniProt Q8R3L8); experiment: Inhibition of CDK8 in mouse BMDC cells assessed as reduction in IFNgamma-induced STAT1 phosphorylation at S727 residue pretreated with IFNgamma for 2 hrs followed by compound treatment for 24 hrs by Western blot assay; assay type: cell-based
[3] = molecular target: Fibroblast growth factor receptor 4 (Homo sapiens) (UniProt P22455); experiment: Inhibition of human FGFR4 at 1 uM relative to control
[4] = molecular target: Serine/threonine-protein kinase pim-3 (Homo sapiens) (UniProt Q86V86); experiment: Inhibition of human PIM3 at 1 uM relative to control
[5] = molecular target: Epithelial discoidin domain-containing receptor 1 (Homo sapiens) (UniProt Q08345); experiment: Inhibition of human DDR1 at 1 uM relative to control
[6] = molecular target: Aurora kinase B (Homo sapiens) (UniProt Q96GD4); experiment: Inhibition of human Aurora B at 1 uM relative to control
[7] = molecular target: Tyrosine-protein kinase JAK1 (Homo sapiens) (UniProt P23458); experiment: Inhibition of human JAK1 at 1 uM relative to control
[8] = Clearance in Sprague-Dawley rat at 5 mg/kg, iv measured upto 12 hrs by LC-MS/MS analysis; assay type: ADME, organism-based; settings: in vivo
[9] = molecular target: Dual specificity protein kinase CLK1 (Homo sapiens) (UniProt P49759); experiment: Inhibition of human CLK1 at 1 uM relative to control
[10] = molecular target: Mitogen-activated protein kinase 10 (Homo sapiens) (UniProt P53779); experiment: Inhibition of human JNK3 at 1 uM relative to control
[11] = molecular target: Fibroblast growth factor receptor 2 (Homo sapiens) (UniProt P21802); experiment: Inhibition of human FGFR2 at 1 uM relative to control
[12] = molecular target: Glycogen synthase kinase-3 beta (Homo sapiens) (UniProt P49841); experiment: Inhibition of human GSK3B at 1 uM relative to control
[13] = molecular target: MAP kinase-interacting serine/threonine-protein kinase 2 (Homo sapiens) (UniProt Q9HBH9); experiment: Inhibition of human MNK2 at 1 uM relative to control
[14] = molecular target: Mitogen-activated protein kinase kinase kinase 21 (Homo sapiens) (UniProt Q5TCX8); experiment: Inhibition of human MLK4 at 1 uM relative to control
[15] = molecular target: Epidermal growth factor receptor (Homo sapiens) (UniProt P00533); experiment: Inhibition of human EGFR at 1 uM relative to control
[16] = molecular target: Tyrosine-protein kinase Mer (Homo sapiens) (UniProt Q12866); experiment: Inhibition of human MER at 1 uM relative to control
[17] = molecular target: BDNF/NT-3 growth factors receptor (Homo sapiens) (UniProt Q16620); experiment: Inhibition of human TRKB at 1 uM relative to control
BDNF/NT-3 growth factors receptor (Homo sapiens), sequence (Q16620 32-822 limits assumed): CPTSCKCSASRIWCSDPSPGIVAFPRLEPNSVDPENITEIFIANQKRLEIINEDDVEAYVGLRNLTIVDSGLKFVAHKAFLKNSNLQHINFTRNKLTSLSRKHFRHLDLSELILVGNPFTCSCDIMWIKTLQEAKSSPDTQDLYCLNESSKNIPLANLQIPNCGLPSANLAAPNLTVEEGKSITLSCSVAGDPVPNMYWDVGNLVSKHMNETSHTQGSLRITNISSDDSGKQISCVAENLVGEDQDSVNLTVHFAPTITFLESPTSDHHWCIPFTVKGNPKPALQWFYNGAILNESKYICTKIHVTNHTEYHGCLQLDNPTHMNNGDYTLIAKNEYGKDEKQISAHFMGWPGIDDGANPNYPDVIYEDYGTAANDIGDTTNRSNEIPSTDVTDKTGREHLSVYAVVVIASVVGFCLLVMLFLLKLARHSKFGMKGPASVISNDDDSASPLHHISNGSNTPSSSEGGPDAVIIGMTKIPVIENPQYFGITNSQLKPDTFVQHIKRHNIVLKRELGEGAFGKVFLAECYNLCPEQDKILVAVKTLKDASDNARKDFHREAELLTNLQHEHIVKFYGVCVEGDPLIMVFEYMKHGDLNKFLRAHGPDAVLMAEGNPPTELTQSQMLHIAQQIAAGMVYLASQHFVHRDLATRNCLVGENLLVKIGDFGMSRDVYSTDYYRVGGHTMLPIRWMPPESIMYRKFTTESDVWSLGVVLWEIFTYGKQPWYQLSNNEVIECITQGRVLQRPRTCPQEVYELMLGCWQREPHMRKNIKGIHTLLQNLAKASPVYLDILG

Aurora kinase B (Homo sapiens), sequence (Q96GD4 whole entry): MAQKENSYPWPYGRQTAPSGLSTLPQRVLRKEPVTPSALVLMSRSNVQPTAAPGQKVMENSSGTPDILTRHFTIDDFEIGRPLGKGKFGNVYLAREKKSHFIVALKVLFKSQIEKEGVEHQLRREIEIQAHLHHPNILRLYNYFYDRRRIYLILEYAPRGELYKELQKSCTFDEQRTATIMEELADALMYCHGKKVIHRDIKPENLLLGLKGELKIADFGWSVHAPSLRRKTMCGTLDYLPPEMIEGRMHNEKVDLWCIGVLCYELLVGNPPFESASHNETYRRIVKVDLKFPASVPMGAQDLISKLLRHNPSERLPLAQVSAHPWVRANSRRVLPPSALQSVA
Dual specificity protein kinase CLK1 (Homo sapiens), sequence (P49759 whole entry, looked up): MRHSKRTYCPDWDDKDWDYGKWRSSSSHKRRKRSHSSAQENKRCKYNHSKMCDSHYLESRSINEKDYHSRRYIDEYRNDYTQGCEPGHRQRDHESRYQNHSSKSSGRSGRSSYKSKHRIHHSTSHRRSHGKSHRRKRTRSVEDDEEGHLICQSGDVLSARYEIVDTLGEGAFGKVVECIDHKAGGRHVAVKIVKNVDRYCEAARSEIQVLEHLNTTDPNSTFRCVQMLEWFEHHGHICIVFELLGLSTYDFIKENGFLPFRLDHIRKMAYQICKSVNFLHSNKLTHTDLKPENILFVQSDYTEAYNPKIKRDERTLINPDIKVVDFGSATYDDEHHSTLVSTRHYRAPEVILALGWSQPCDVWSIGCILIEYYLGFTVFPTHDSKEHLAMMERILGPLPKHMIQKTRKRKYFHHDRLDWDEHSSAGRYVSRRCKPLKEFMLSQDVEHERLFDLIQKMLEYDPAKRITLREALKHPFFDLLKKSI
Mitogen-activated protein kinase kinase kinase 21 (Homo sapiens), sequence (Q5TCX8 whole entry): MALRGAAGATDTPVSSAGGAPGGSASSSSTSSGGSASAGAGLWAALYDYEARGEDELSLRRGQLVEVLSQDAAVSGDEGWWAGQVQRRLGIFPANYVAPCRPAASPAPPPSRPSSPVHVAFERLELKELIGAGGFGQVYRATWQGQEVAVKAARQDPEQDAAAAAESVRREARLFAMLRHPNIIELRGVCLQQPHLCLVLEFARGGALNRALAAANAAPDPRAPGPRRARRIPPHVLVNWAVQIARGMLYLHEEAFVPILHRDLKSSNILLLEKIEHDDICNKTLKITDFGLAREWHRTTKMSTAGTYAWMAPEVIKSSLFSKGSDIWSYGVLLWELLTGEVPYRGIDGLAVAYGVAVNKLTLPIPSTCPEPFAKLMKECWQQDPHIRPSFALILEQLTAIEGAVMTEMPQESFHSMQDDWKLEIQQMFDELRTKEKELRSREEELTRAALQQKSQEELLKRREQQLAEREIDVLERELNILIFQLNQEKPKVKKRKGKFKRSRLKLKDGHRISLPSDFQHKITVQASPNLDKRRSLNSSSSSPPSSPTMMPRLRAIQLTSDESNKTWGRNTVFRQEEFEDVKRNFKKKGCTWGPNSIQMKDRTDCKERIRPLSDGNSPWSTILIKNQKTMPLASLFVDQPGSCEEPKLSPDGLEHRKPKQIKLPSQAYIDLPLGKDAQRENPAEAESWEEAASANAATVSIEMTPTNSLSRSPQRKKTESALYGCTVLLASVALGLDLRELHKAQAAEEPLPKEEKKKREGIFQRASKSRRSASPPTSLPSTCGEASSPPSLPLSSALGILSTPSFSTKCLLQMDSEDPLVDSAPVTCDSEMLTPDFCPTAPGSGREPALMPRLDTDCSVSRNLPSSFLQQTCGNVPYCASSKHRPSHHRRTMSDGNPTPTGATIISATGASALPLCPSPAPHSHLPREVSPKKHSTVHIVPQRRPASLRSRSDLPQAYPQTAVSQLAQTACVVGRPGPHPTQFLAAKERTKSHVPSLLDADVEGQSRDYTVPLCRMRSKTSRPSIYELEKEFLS
Mitogen-activated protein kinase 10 (Homo sapiens), sequence (P53779 whole entry): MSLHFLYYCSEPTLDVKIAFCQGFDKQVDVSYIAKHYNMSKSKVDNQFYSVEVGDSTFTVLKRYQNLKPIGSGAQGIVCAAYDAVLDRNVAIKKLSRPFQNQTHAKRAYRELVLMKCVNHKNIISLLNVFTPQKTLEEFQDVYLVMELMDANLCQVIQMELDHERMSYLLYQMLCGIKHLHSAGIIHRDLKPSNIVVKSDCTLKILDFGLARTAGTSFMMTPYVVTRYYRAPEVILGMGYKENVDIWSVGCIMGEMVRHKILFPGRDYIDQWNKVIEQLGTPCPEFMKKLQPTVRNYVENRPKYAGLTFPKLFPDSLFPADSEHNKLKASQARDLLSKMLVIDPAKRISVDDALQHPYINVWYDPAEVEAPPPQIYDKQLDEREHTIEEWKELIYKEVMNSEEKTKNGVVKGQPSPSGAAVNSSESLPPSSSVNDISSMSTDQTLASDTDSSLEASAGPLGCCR
Epithelial discoidin domain-containing receptor 1 (Homo sapiens), sequence (Q08345 whole entry, the tested form may be a part): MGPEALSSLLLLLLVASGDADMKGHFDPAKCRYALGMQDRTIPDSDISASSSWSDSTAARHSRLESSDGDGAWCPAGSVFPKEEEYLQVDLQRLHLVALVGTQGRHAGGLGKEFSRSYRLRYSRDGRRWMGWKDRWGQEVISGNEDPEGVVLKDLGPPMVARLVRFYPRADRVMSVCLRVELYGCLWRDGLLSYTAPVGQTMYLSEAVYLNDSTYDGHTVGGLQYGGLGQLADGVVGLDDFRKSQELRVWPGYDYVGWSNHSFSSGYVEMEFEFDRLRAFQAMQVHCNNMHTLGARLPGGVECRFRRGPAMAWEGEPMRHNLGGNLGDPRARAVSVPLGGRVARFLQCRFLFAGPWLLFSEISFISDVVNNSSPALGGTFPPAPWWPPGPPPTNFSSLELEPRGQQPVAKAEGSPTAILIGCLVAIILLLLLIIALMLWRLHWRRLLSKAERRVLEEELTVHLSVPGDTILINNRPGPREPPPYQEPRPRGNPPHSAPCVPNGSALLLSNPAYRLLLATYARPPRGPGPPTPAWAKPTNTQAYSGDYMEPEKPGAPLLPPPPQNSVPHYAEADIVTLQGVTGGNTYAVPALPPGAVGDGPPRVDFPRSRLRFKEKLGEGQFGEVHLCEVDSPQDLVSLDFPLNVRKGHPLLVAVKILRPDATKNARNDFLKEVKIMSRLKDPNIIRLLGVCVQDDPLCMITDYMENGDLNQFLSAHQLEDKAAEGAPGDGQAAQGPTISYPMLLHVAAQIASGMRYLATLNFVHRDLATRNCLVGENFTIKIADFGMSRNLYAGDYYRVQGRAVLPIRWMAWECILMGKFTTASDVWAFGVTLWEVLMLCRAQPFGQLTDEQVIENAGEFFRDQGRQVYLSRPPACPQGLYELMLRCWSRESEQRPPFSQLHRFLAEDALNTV
Cyclin-dependent kinase 8 (Mus musculus), sequence (Q8R3L8 whole entry): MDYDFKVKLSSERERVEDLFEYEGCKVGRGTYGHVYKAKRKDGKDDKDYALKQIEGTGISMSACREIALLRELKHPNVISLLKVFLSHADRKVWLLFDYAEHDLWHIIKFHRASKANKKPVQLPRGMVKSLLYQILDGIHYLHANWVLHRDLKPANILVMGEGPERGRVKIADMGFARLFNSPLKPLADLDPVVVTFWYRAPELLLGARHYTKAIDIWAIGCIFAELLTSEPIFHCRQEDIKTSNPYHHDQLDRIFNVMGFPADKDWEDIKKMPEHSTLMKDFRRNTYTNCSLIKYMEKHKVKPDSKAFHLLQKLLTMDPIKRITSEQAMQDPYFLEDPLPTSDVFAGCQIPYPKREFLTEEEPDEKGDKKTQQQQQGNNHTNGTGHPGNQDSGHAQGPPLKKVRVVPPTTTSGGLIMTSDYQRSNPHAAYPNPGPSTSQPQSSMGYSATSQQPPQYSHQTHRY

half-life [1]: 1.63 h | inhibition [2]: Active | inhibition [3]: 0% | inhibition [4]: 4% | inhibition [5]: 36% | inhibition [6]: 43% | inhibition [7]: 9% | CL [8]: 11.32 L/h/kg | inhibition [9]: 10% | inhibition [10]: 8% | inhibition [11]: 0% | inhibition [12]: 0% | inhibition [13]: 10% | inhibition [14]: 0% | inhibition [15]: 0% | inhibition [16]: 30% | inhibition [17]: 24%
Compound: Cc1ccc(NC(=O)CCc2cccc(-c3cnc4[nH]ccc4c3)c2)cc1C(F)(F)F
